Data reported in US8017633B2, “Roflumilast for the treatment of diabetes mellitus” (Nycomed GmbH, priority 2005, dated 2011).

Legend:
[1] = system: C57BLKS db/db mice; assay: Daily water intake of db/db mice during once-daily oral treatment; format: in vivo, mouse
Protocol: (§1) Female C57BLKS db/db mice obtained from M&B A/S (8680 Ry, Denmark) were used in the studies at 10 to 11 weeks of age. Mice were housed 10 per cage and allowed free access to water and standard laboratory diet for rodents (chow 3433, Provimi Kliba SA, 4303 Kaiseraugst, Switzerland).
(§2) Mice were treated with vehicle, Roflumilast or Roflumilast-N-Oxide, respectively once daily in the morning. Roflumilast or Roflumilast-N-Oxide was suspended in 4% methocel and applied via oral gavage using oral feeding & dosing needles (outer diameter: 1.5 mm, TSE GmbH, 61350 Bad Homburg, Germany). A volume of 10 ml/kg body weight was administered for each dose.
The daily intake of food (chow 3433) and water was measured per animal (total daily intake of food divided by the number of animals) before and during the treatment with Roflumilast or Roflumilast-N-Oxide.

[2] = system: C57BLKS db/db mice; assay: 10 days study: fasting blood glucose and oral glucose tolerance in db/db mice; format: in vivo, mouse; conditions: for Blood glucose (15 min after glucose application) / Blood glucose (before glucose application): fasted 24 h; for Blood glucose (15 min after glucose application): 15 min after oral 1 g/kg glucose; for Blood glucose (before glucose application): 1 h after dose
Protocol: as §1
Mice were allowed to acclimate to the local animal facilities for 1 week and retro-orbital blood samples were obtained 3 to 7 days prior to the start of the study.
as §2
10 days studies: Mice were treated with vehicle, Roflumilast or Roflumilast-N-Oxide once daily in the morning. On day 9, mice were fasted for 24 hours by removing standard diet for laboratory animals 1 hour after drug application. On day 10, one hour after administration of vehicle, Roflumilast or Roflumilast-N-Oxide glucose tolerance was assessed by oral application of 1 g/kg/10 ml glucose. Blood was sampled before and 15 minutes after glucose application and levels of glucose (accu-chek, Roche Diagnostics GmbH, 68298 Mannheim, Germany) were measured.

[3] = Rof-N-Oxide 1 mg/kg oral once daily 10 days
[4] = Rof-N-Oxide 3 mg/kg oral once daily 10 days
[5] = Rof-N-Oxide 10 mg/kg oral once daily 10 days
[6] = Rof-N-Oxide 30 mg/kg oral once daily 10 days

Q: With O=C(Nc1c(Cl)c[n+]([O-])cc1Cl)c1ccc(OC(F)F)c(OCC2CC2)c1 [Rof-N-Oxide, 3-cyclopropylmethoxy-4-difluoromethoxy-N-(3,5-dichloro-1-oxido-pyridin-4-yl)benzamide] as the molecule, how does the “Daily water intake before the first application” value ([1]; 1 mg/kg group, Day −4, before first application) read?
A: 9.4 g per mouse

Q: And the “Daily water intake before the first application” value ([1]; 1 mg/kg group, Day −5, before first application)?
A: 9.2 g per mouse

Q: What about the “Daily water intake on the days of application” value (shortened to “Daily water intake on the days”) ([1]; 1 mg/kg oral once daily, Day 1) of the same molecule?
A: 7.6 g per mouse

Q: And the “Daily water intake on the days” value ([1]; 1 mg/kg oral once daily, Day 2)?
A: 6.9 g per mouse

Q: And the “Daily water intake on the days” value ([1]; 1 mg/kg oral once daily, Day 4)?
A: 7.1 g per mouse

Q: And the “Daily water intake on the days” value ([1]; 1 mg/kg oral once daily, Day 5)?
A: 8.0 g per mouse

Q: And the “Daily water intake on the days” value ([1]; 1 mg/kg oral once daily, Day 6)?
A: 7.7 g per mouse

Q: What about the “Daily water intake on the days” value ([1]; 1 mg/kg oral once daily, Day 7) of the same molecule?
A: 8.5 g per mouse

Q: And the “Daily water intake on the days” value ([1]; 1 mg/kg oral once daily, Day 8)?
A: 7.2 g per mouse

Q: And the “Daily water intake before the first application” value ([1]; 3 mg/kg group, Day −1, before first application)?
A: 9.1 g per mouse

Q: What about the “Daily water intake before the first application” value ([1]; 3 mg/kg group, Day −2, before first application) of the same molecule?
A: 7.6 g per mouse

Q: What about the “Daily water intake before the first application” value ([1]; 3 mg/kg group, Day −3, before first application) of the same molecule?
A: 7.6 g per mouse

Q: What about the “Daily water intake before the first application” value ([1]; 3 mg/kg group, Day −4, before first application) of the same molecule?
A: 4.3 g per mouse

Q: What about the “Daily water intake before the first application” value ([1]; 3 mg/kg group, Day −5, before first application) of the same molecule?
A: 9.8 g per mouse

Q: What about the “Daily water intake on the days” value ([1]; 3 mg/kg oral once daily, Day 1) of the same molecule?
A: 5.1 g per mouse

Q: And the “Daily water intake on the days” value ([1]; 3 mg/kg oral once daily, Day 2)?
A: 5.9 g per mouse

Q: And the “Daily water intake on the days” value ([1]; 3 mg/kg oral once daily, Day 4)?
A: 5.9 g per mouse

Q: And the “Daily water intake on the days” value ([1]; 3 mg/kg oral once daily, Day 5)?
A: 5.7 g per mouse

Q: And the “Daily water intake on the days” value ([1]; 3 mg/kg oral once daily, Day 6)?
A: 5.4 g per mouse

Q: What about the “Daily water intake on the days” value ([1]; 3 mg/kg oral once daily, Day 7) of the same molecule?
A: 5.4 g per mouse

Q: And the “Daily water intake on the days” value ([1]; 3 mg/kg oral once daily, Day 8)?
A: 5.2 g per mouse

Q: And the “Daily water intake before the first application” value ([1]; 10 mg/kg group, Day −1, before first application)?
A: 9.6 g per mouse

Q: And the “Daily water intake before the first application” value ([1]; 10 mg/kg group, Day −2, before first application)?
A: 8.2 g per mouse

Q: What about the “Daily water intake before the first application” value ([1]; 10 mg/kg group, Day −3, before first application) of the same molecule?
A: 7.9 g per mouse

Q: And the “Daily water intake before the first application” value ([1]; 10 mg/kg group, Day −4, before first application)?
A: 9.6 g per mouse

Q: And the “Daily water intake before the first application” value ([1]; 10 mg/kg group, Day −5, before first application)?
A: 12.1 g per mouse

Q: What about the “Daily water intake on the days” value ([1]; 10 mg/kg oral once daily, Day 1) of the same molecule?
A: 2.9 g per mouse

Q: What about the “Daily water intake on the days” value ([1]; 10 mg/kg oral once daily, Day 2) of the same molecule?
A: 3.5 g per mouse

Q: What about the “Daily water intake on the days” value ([1]; 10 mg/kg oral once daily, Day 4) of the same molecule?
A: 3.2 g per mouse

Q: What about the “Daily water intake on the days” value ([1]; 10 mg/kg oral once daily, Day 5) of the same molecule?
A: 3.7 g per mouse

Q: What about the “Daily water intake on the days” value ([1]; 10 mg/kg oral once daily, Day 6) of the same molecule?
A: 3.3 g per mouse

Q: And the “Daily water intake on the days” value ([1]; 10 mg/kg oral once daily, Day 7)?
A: 3.0 g per mouse

Q: And the “Daily water intake on the days” value ([1]; 10 mg/kg oral once daily, Day 8)?
A: 4.1 g per mouse

Q: What about the “Daily water intake before the first application” value ([1]; 30 mg/kg group, Day −1, before first application) of the same molecule?
A: 10.1 g per mouse

Q: And the “Daily water intake before the first application” value ([1]; 30 mg/kg group, Day −2, before first application)?
A: 9.4 g per mouse

Q: And the “Daily water intake before the first application” value ([1]; 30 mg/kg group, Day −3, before first application)?
A: 10.0 g per mouse

Q: And the “Daily water intake before the first application” value ([1]; 30 mg/kg group, Day −4, before first application)?
A: 12.4 g per mouse

Q: What about the “Daily water intake before the first application” value ([1]; 30 mg/kg group, Day −5, before first application) of the same molecule?
A: 10.1 g per mouse

Q: What about the “Daily water intake on the days” value ([1]; 30 mg/kg oral once daily, Day 1) of the same molecule?
A: 2.3 g per mouse

Q: And the “Daily water intake on the days” value ([1]; 30 mg/kg oral once daily, Day 2)?
A: 2.4 g per mouse

Q: And the “Daily water intake on the days” value ([1]; 30 mg/kg oral once daily, Day 4)?
A: 2.6 g per mouse

Q: And the “Daily water intake on the days” value ([1]; 30 mg/kg oral once daily, Day 5)?
A: 3.0 g per mouse

Q: What about the “Daily water intake on the days” value ([1]; 30 mg/kg oral once daily, Day 6) of the same molecule?
A: 2.9 g per mouse

Q: What about the “Daily water intake on the days” value ([1]; 30 mg/kg oral once daily, Day 7) of the same molecule?
A: 3.3 g per mouse

Q: And the “Daily water intake on the days” value ([1]; 30 mg/kg oral once daily, Day 8)?
A: 2.5 g per mouse

Q: And the “Effect on increased daily water intake (summary in words)” value ([1]; db/db mice, treatment once daily oral)?
A: reduced

Q: What about the “Blood glucose (15 min after glucose application)” value [2, 3] of the same molecule?
A: 595 mg/dL

Q: What about the “Blood glucose (before glucose application)” value [2, 3] of the same molecule?
A: 220 mg/dL

Q: What about the “Blood glucose (15 min after glucose application)” value [2, 4] of the same molecule?
A: 467 mg/dL

Q: What about the “Blood glucose (before glucose application)” value [2, 4] of the same molecule?
A: 174 mg/dL

Q: What about the “Blood glucose (15 min after glucose application)” value [2, 5] of the same molecule?
A: 423 mg/dL

Q: And the “Blood glucose (before glucose application)” value [2, 5]?
A: 139 mg/dL

Q: And the “Blood glucose (15 min after glucose application)” value [2, 6]?
A: 326 mg/dL

Q: And the “Blood glucose (before glucose application)” value [2, 6]?
A: 146 mg/dL

Q: What about the “Effect on fasting blood glucose levels (summary in words)” value ([2]; db/db mice) of the same molecule?
A: reduce

Q: What about the “Effect on postprandial blood glucose levels (summary in words)” value ([2]; db/db mice) of the same molecule?
A: reduce
